Measurements taken from patent US10251395B2, “Substituted furano-/thienocycloalkylamino-2-pyrimidine derivatives and use thereof for controlling undesired plant growth” (Bayer CropScience Aktiengesellschaft, priority 2015, dated 2019).

Legend:
[1] = test system: Abutilon theophrasti; test: Pre-emergence herbicidal effect; format: in vivo; details: scored visually after 3 weeks
Summary of the method: (§1)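 Pre-em soil-surface spray; sandy loam, seeds covered with soil. WP/EC, aq. suspension/emulsion, 600–800 L/ha, +0.2% wetting agent. GH 3 wk; visual % activity vs untreated (100% = dead).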

[2] = test system: Alopecurus myosuroides; test: Pre-emergence herbicidal effect; format: in vivo; details: scored visually after 3 weeks
Summary of the method: as §1

[3] = test system: Amaranthus retroflexus; test: Pre-emergence herbicidal effect; format: in vivo; details: scored visually after 3 weeks
Summary of the method: as §1

[4] = test system: Avena fatua; test: Pre-emergence herbicidal effect; format: in vivo; details: Dosage 320 g/ha, scored visually after 3 weeks
Summary of the method: as §1

[5] = test system: Cyperus esculentus; test: Pre-emergence herbicidal effect; format: in vivo; details: Dosage 320 g/ha, scored visually after 3 weeks
Summary of the method: as §1

[6] = test system: Echinochloa crus-galli; test: Pre-emergence herbicidal effect; format: in vivo; details: scored visually after 3 weeks
Summary of the method: as §1

[7] = test system: Ipomoea purpurea; test: Pre-emergence herbicidal effect; format: in vivo; details: scored visually after 3 weeks
Summary of the method: as §1

[8] = test system: Lolium multiflorum; test: Pre-emergence herbicidal effect; format: in vivo; details: scored visually after 3 weeks
Summary of the method: as §1

[9] = test system: Matricaria inodora; test: Pre-emergence herbicidal effect; format: in vivo; details: scored visually after 3 weeks
Summary of the method: as §1

[10] = test system: Polygonum convolvulus; test: Pre-emergence herbicidal effect; format: in vivo; details: scored visually after 3 weeks
Summary of the method: as §1

[11] = test system: Setaria viridis; test: Pre-emergence herbicidal effect; format: in vivo; details: scored visually after 3 weeks
Summary of the method: as §1

[12] = test system: Stellaria media; test: Pre-emergence herbicidal effect; format: in vivo; details: scored visually after 3 weeks
Summary of the method: as §1

[13] = test system: Veronica persica; test: Pre-emergence herbicidal effect; format: in vivo; details: scored visually after 3 weeks
Summary of the method: as §1

[14] = test system: Viola tricolor; test: Pre-emergence herbicidal effect; format: in vivo; details: scored visually after 3 weeks
Summary of the method: as §1

[15] = test system: Abutilon theophrasti; test: Post-emergence herbicidal effect; format: in vivo; details: assessed visually after about 3 weeks vs untreated controls
Summary of the method: (§2)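 Herbicidal effect was rated visually roughly 3 weeks after foliar treatment, as % versus untreated plants, with 0% meaning the same as controls and 100% meaning dead. Plants were treated at the one-leaf stage in the greenhouse with aqueous WP or EC sprays at 600–800 L/ha containing 0.2% wetter.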

[16] = test system: Alopecurus myosuroides; test: Post-emergence herbicidal effect; format: in vivo; details: assessed visually after about 3 weeks vs untreated controls
Summary of the method: as §2

[17] = test system: Amaranthus retroflexus; test: Post-emergence herbicidal effect; format: in vivo; details: assessed visually after about 3 weeks vs untreated controls
Summary of the method: as §2

[18] = test system: Avena fatua; test: Post-emergence herbicidal effect; format: in vivo; details: assessed visually after about 3 weeks vs untreated controls
Summary of the method: as §2

[19] = test system: Echinochloa crus-galli; test: Post-emergence herbicidal effect; format: in vivo; details: assessed visually after about 3 weeks vs untreated controls
Summary of the method: as §2

[20] = test system: Ipomoea purpurea; test: Post-emergence herbicidal effect; format: in vivo; details: assessed visually after about 3 weeks vs untreated controls
Summary of the method: as §2

[21] = test system: Lolium multiflorum; test: Post-emergence herbicidal effect; format: in vivo; details: assessed visually after about 3 weeks vs untreated controls
Summary of the method: as §2

[22] = test system: Matricaria inodora; test: Post-emergence herbicidal effect; format: in vivo; details: assessed visually after about 3 weeks vs untreated controls
Summary of the method: as §2

[23] = test system: Polygonum convolvulus; test: Post-emergence herbicidal effect; format: in vivo; details: assessed visually after about 3 weeks vs untreated controls
Summary of the method: as §2

[24] = test system: Setaria viridis; test: Post-emergence herbicidal effect; format: in vivo; details: assessed visually after about 3 weeks vs untreated controls
Summary of the method: as §2

[25] = test system: Stellaria media; test: Post-emergence herbicidal effect; format: in vivo; details: assessed visually after about 3 weeks vs untreated controls
Summary of the method: as §2

[26] = test system: Veronica persica; test: Post-emergence herbicidal effect; format: in vivo; details: assessed visually after about 3 weeks vs untreated controls
Summary of the method: as §2

[27] = test system: Viola tricolor; test: Post-emergence herbicidal effect; format: in vivo; details: assessed visually after about 3 weeks vs untreated controls
Summary of the method: as §2

[28] = logP (HCOOH); format: physicochemical
Source text: Table 2 (physicochemical characterization of selected synthesis examples)

Cc1cc2c(s1)CCC[C@H]2Nc1ncc(C(F)(F)F)c(N)n1 [compound 47, N2-[(4R)-2-Methyl-4,5,6,7-tetrahydrobenzothiophen-4-yl]-5-(trifluoromethyl)pyrimidine-2,4-diamine]
ABUTH pre-emergence efficacy (herbicidal activity) ([1]; Dosage 80 g/ha): 80%
ABUTH pre-emergence efficacy (herbicidal activity) ([1]; Dosage 320 g/ha): 100%
ALOMY pre-emergence efficacy (herbicidal activity) ([2]; Dosage 80 g/ha): 80%
ALOMY pre-emergence efficacy (herbicidal activity) ([2]; Dosage 320 g/ha): 100%
AMARE pre-emergence efficacy (herbicidal activity) ([3]; Dosage 80 g/ha): 100%
AMARE pre-emergence efficacy (herbicidal activity) ([3]; Dosage 320 g/ha): 100%
AVEFA pre-emergence efficacy (herbicidal activity) [4]: 100%
CYPES pre-emergence efficacy (herbicidal activity) [5]: 80%
ECHCG pre-emergence efficacy (herbicidal activity) ([6]; Dosage 80 g/ha): 100%
ECHCG pre-emergence efficacy (herbicidal activity) ([6]; Dosage 320 g/ha): 100%
PHBPU pre-emergence efficacy (herbicidal activity) ([7]; Dosage 80 g/ha): 100%
PHBPU pre-emergence efficacy (herbicidal activity) ([7]; Dosage 320 g/ha): 100%
LOLMU pre-emergence efficacy (herbicidal activity) ([8]; Dosage 320 g/ha): 100%
MATIN pre-emergence efficacy (herbicidal activity) ([9]; Dosage 80 g/ha): 100%
MATIN pre-emergence efficacy (herbicidal activity) ([9]; Dosage 320 g/ha): 100%
POLCO pre-emergence efficacy (herbicidal activity) ([10]; Dosage 80 g/ha): 100%
POLCO pre-emergence efficacy (herbicidal activity) ([10]; Dosage 320 g/ha): 100%
SETVI pre-emergence efficacy (herbicidal activity) ([11]; Dosage 80 g/ha): 100%
SETVI pre-emergence efficacy (herbicidal activity) ([11]; Dosage 320 g/ha): 100%
STEME pre-emergence efficacy (herbicidal activity) ([12]; Dosage 80 g/ha): 100%
STEME pre-emergence efficacy (herbicidal activity) ([12]; Dosage 320 g/ha): 100%
VERPE pre-emergence efficacy (herbicidal activity) ([13]; Dosage 80 g/ha): 100%
VERPE pre-emergence efficacy (herbicidal activity) ([13]; Dosage 320 g/ha): 100%
VIOTR pre-emergence efficacy (herbicidal activity) ([14]; Dosage 80 g/ha): 100%
VIOTR pre-emergence efficacy (herbicidal activity) ([14]; Dosage 320 g/ha): 100%
post-emergence efficacy ABUTH ([15]; 80 g/ha): 90%
post-emergence efficacy ABUTH ([15]; 320 g/ha): 90%
post-emergence efficacy ALOMY ([16]; 320 g/ha): 100%
post-emergence efficacy AMARE ([17]; 320 g/ha): 90%
post-emergence efficacy AVEFA ([18]; 80 g/ha): 100%
post-emergence efficacy AVEFA ([18]; 320 g/ha): 90%
post-emergence efficacy ECHCG ([19]; 80 g/ha): 100%
post-emergence efficacy ECHCG ([19]; 320 g/ha): 100%
post-emergence efficacy PHBPU ([20]; 80 g/ha): 100%
post-emergence efficacy PHBPU ([20]; 320 g/ha): 100%
post-emergence efficacy LOLMU ([21]; 320 g/ha): 80%
post-emergence efficacy MATIN ([22]; 80 g/ha): 90%
post-emergence efficacy MATIN ([22]; 320 g/ha): 100%
post-emergence efficacy POLCO ([23]; 80 g/ha): 80%
post-emergence efficacy POLCO ([23]; 320 g/ha): 80%
post-emergence efficacy SETVI ([24]; 80 g/ha): 90%
post-emergence efficacy SETVI ([24]; 320 g/ha): 90%
post-emergence efficacy STEME ([25]; 80 g/ha): 100%
post-emergence efficacy STEME ([25]; 320 g/ha): 100%
post-emergence efficacy VERPE ([26]; 80 g/ha): 100%
post-emergence efficacy VIOTR ([27]; 80 g/ha): 100%
post-emergence efficacy VIOTR ([27]; 320 g/ha): 100%
chromatographic logP ([28]; HCOOH (formic acid)): 2.62

Cc1cc2c(s1)CCCC2Nc1ncc(C(F)(F)F)c(N)n1 (racemic) [compound 257]
ABUTH pre-emergence efficacy (herbicidal activity) ([1]; Dosage 80 g/ha): 70%
ABUTH pre-emergence efficacy (herbicidal activity) ([1]; Dosage 320 g/ha): 100%
ALOMY pre-emergence efficacy (herbicidal activity) ([2]; Dosage 80 g/ha): 100%
ALOMY pre-emergence efficacy (herbicidal activity) ([2]; Dosage 320 g/ha): 100%
AMARE pre-emergence efficacy (herbicidal activity) ([3]; Dosage 80 g/ha): 100%
AMARE pre-emergence efficacy (herbicidal activity) ([3]; Dosage 320 g/ha): 100%
AVEFA pre-emergence efficacy (herbicidal activity) [4]: 100%
ECHCG pre-emergence efficacy (herbicidal activity) ([6]; Dosage 80 g/ha): 100%
ECHCG pre-emergence efficacy (herbicidal activity) ([6]; Dosage 320 g/ha): 100%
PHBPU pre-emergence efficacy (herbicidal activity) ([7]; Dosage 320 g/ha): 100%
LOLMU pre-emergence efficacy (herbicidal activity) ([8]; Dosage 80 g/ha): 100%
LOLMU pre-emergence efficacy (herbicidal activity) ([8]; Dosage 320 g/ha): 100%
MATIN pre-emergence efficacy (herbicidal activity) ([9]; Dosage 80 g/ha): 100%
MATIN pre-emergence efficacy (herbicidal activity) ([9]; Dosage 320 g/ha): 100%
POLCO pre-emergence efficacy (herbicidal activity) ([10]; Dosage 80 g/ha): 100%
POLCO pre-emergence efficacy (herbicidal activity) ([10]; Dosage 320 g/ha): 100%
SETVI pre-emergence efficacy (herbicidal activity) ([11]; Dosage 80 g/ha): 100%
SETVI pre-emergence efficacy (herbicidal activity) ([11]; Dosage 320 g/ha): 100%
STEME pre-emergence efficacy (herbicidal activity) ([12]; Dosage 80 g/ha): 100%
STEME pre-emergence efficacy (herbicidal activity) ([12]; Dosage 320 g/ha): 100%
VERPE pre-emergence efficacy (herbicidal activity) ([13]; Dosage 80 g/ha): 100%
VERPE pre-emergence efficacy (herbicidal activity) ([13]; Dosage 320 g/ha): 100%
VIOTR pre-emergence efficacy (herbicidal activity) ([14]; Dosage 80 g/ha): 100%
VIOTR pre-emergence efficacy (herbicidal activity) ([14]; Dosage 320 g/ha): 100%
post-emergence efficacy ABUTH ([15]; 80 g/ha): 90%
post-emergence efficacy ABUTH ([15]; 320 g/ha): 90%
post-emergence efficacy ALOMY ([16]; 80 g/ha): 70%
post-emergence efficacy ALOMY ([16]; 320 g/ha): 90%
post-emergence efficacy AMARE ([17]; 80 g/ha): 80%
post-emergence efficacy AMARE ([17]; 320 g/ha): 90%
post-emergence efficacy AVEFA ([18]; 80 g/ha): 70%
post-emergence efficacy AVEFA ([18]; 320 g/ha): 100%
post-emergence efficacy ECHCG ([19]; 80 g/ha): 90%
post-emergence efficacy ECHCG ([19]; 320 g/ha): 100%
post-emergence efficacy PHBPU ([20]; 80 g/ha): 80%
post-emergence efficacy PHBPU ([20]; 320 g/ha): 90%
post-emergence efficacy LOLMU ([21]; 80 g/ha): 100%
post-emergence efficacy LOLMU ([21]; 320 g/ha): 100%
post-emergence efficacy MATIN ([22]; 80 g/ha): 90%
post-emergence efficacy MATIN ([22]; 320 g/ha): 90%
post-emergence efficacy POLCO ([23]; 80 g/ha): 60%
post-emergence efficacy POLCO ([23]; 320 g/ha): 80%
post-emergence efficacy SETVI ([24]; 80 g/ha): 90%
post-emergence efficacy SETVI ([24]; 320 g/ha): 90%
post-emergence efficacy STEME ([25]; 80 g/ha): 80%
post-emergence efficacy STEME ([25]; 320 g/ha): 100%
post-emergence efficacy VERPE ([26]; 320 g/ha): 100%
post-emergence efficacy VIOTR ([27]; 80 g/ha): 90%
post-emergence efficacy VIOTR ([27]; 320 g/ha): 90%
logP (HCOOH) ([28]; HCOOH): oily; logP (HCOOH): 2.02; 1H NMR (CDCl3, 400 MHZ, δ in ppm): 2.10 (m, 1H, 1H of
